Measured values published in patent US9359650B2, “Biomass pre-treatment for co-production of high-concentration C5- and C6-carbohydrates and their derivatives” (Wisconsin Alumni Research Foundation, priority 2013, dated 2016).

Key:
E. coli MG1655 = test: E. coli salt and GVL toxicity testing (growth, OD600); format: cell-based; details: E. coli MG1655, optical density after 24 hr of growth, 37° C., MOPS minimal media with 0.5% glucose plus wt % GVL or NaCl; FIGS. 22A/22B
Description: The strain used in these experiments was wild type E. coli MG1655 and in all cases was grown at 37° C. The toxicity medium used was based on MOPS minimal media with 0.5% glucose and supplemented with the appropriate wt % of GVL or sodium chloride (Sigma). A single colony of E. coli was picked from LB agar and grown overnight in 5 ml of LB media (glass culture tubes, 20×150 mm, Fisher Scientific) agitated at 250 rpm in an incubator shaker (New Brunswick Scientific). The resulting solution was used to inoculate 2 ml of the toxicity medium to an OD600 of 0.01 in 13×100 mm tubes (Fisher Scientific). The tubes were incubated for 24 hours under the same conditions as described in the main methods and a final OD600 measured using a Biomate 3 spectrophotometer (ThermoFisher).

S. cerevisiae PE2 = test: S. cerevisiae salt and GVL toxicity testing (growth, OD600); format: cell-based; details: S. cerevisiae PE2, optical density after 40 hr of growth, 30° C., Yeast Nitrogen Base, 0.5% glucose plus wt % GVL or NaCl; FIGS. 22A/22B
Description: The strain used in these experiments was S. cerevisiae PE2 and in all cases was grown at 30° C. The toxicity medium used was formulated using 10x Yeast Nitrogen Base without Amino Acids, 0.5% glucose and the appropriate wt % of GVL or sodium chloride (Sigma). A single colony of S. cerevisiae was picked from YPD agar and grown overnight in 5 ml of YPD media (glass culture tubes, 20×150 mm, Fisher Scientific) agitated at 250 rpm in the incubator shaker. The resulting solution was used to inoculate 2 ml of the toxicity medium to an OD600 of 0.01 in 13×100 mm tubes (Fisher Scientific). The tubes were incubated for 40 hours under same conditions and sampled as described above.

SMILES	effect of concentration on microbial growth (optical density) (E. coli MG1655)	effect of concentration on microbial growth (optical density) (S. cerevisiae PE2)
[Cl-].[Na+] [NaCl, sodium chloride]	can inhibit microbial growth	can inhibit microbial growth
CC1CCC(=O)O1 (stereo not shown) [GVL, gamma-valerolactone]	can inhibit microbial growth	can inhibit microbial growth
